These results are taken from patent publication US10321681B2, “Plant support formulation, vehicle for the delivery and translocation of phytologically beneficial substances and compositions containing same” (NORTH-WEST UNIVERSITY, priority 2006, dated 2019).

The assay concerns maize. In words: Captan with Elementol R seed treatment, dry maize field trial. The assay is classed as in vivo. Conditions: versus untreated seeds. On the procedure: A genetically modified cultivar, supplied by a large seed producing company was used. One bag of treated seed was split and one portion of the seeds in the bag was treated with Captan, while another portion was treated with Captan mixed with Elementol R in the following manner. Captan is a broad-spectrum contact fungicide that has been used on corn seed since the 1950s. It is usually dyed pink and leaves a pink dust in the seed bag and planter box. It is very effective against a broad range of soil fungi. The prescribed amount of Captan was mixed directly with the seeds (Captan reference group). For the test group, seeds were mixed with a similar amount of Captan in 2% Elementol R. The seeds of both groups were briefly mixed or stirred with their individual treatment and then left to dry. Seeds were planted in blocks of 3 or 5 rows stretching the length of the maize field with untreated block s on both sides of each of the treatment groups in the North West Province, South Africa. Culturing was done according to general farming practices with no irrigation.
Plants of each of the untreated, the reference Captan group and the Elementol R/Captan group were collected by pulling up every fifth plant in a row. […]
The total plant mass, the root mass and the leaf mass of each plant were determined. […]

Turning to `O=C1C2CC=CCC2C(=O)N1SC(Cl)(Cl)Cl` (centres unmarked) [Captan], the root mass result is on record as “only slightly enhanced root mass”. Also, the “leaf mass / growth of the plant leaves” value (fifty plants per group) was “did not result in any change of growth of the plant leaves”.
